The record followed here is article PMC3662789, “Structural Investigation of a Novel N-Acetyl Glucosamine Binding Chi-Lectin Which Reveals Evolutionary Relationship with Class III Chitinases” (PLoS ONE, 2013).

This experiment addresses T1, TCLL (tamarind chitinase like lectin) (Tamarindus indica, UniProt S4S1V9).
T1 construct: monomer, glycosylated at Asn146; 33440 Da (deglycosylated 31811 Da); 266 residues modelled (7-272)
Description: isothermal titration calorimetry (single-site model). As to conditions: 20 mM Tris, pH 7.4, 25°C; 0.3 mM protein, 8 mM sugar in syringe; crystal complex at 1.6 Å with two surface sites S1 and S2. Format: binding.

T1 sequence (S4S1V9 entry or part of it): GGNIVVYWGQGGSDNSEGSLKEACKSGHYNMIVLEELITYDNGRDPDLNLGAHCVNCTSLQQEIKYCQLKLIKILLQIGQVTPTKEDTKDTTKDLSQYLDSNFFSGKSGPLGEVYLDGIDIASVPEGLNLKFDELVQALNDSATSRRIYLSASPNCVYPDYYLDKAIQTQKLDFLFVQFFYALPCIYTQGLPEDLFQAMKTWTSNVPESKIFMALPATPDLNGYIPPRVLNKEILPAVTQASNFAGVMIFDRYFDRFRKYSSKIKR

With `CC(=O)N[C@H]1C(O)O[C@H](CO)[C@@H](O)[C@@H]1O` (stereo partly shown) [N-acetyl glucosamine], the Ka is 2.9×10^3.
